Measurements published in patent publication US10507207B2, “Non-nucleosidic inhibitors of reverse transcriptase as antagonists of cell proliferation and inducers of cell differentiation” (ISTITUTO SUPERIORE DI SANITA, priority 2001, dated 2019).

Key:
[1] = test system: HL60 cells; assay: Cytofluorimetric analysis of cell surface markers; type: cell-based, human; settings: HL60, RA 1 μM, 4 days
From the text: (§1) The induction of CD11b is associated with granulocytic differentiation, CD14 is considered a monocytic specific antigen and CD15 is a myelomonocytic antigen. Simultaneous induction of CD14 and CD11b relates to monocytic differentiation. […] In nevirapine-treated NB4 and HL60 cells, a strong induction of expression of CD15, and, to a lesser degree, CD11b and CD14 markers was detected.

[2] = test system: NB4 cells; assay: Cytofluorimetric analysis of cell surface markers; type: cell-based, human; settings: NB4, RA 1 μM, 4 days
From the text: as §1

[3] = test system: NB4 cells; assay: Growth, viable cell count; type: cell-based, human; settings: NB4, RA 1 μM, 4 days
[4] = test system: HL60 cells; assay: Growth, viable cell count; type: cell-based, human; settings: HL60, RA 1 μM, 4 days
[5] = test system: NB4 cells; assay: NBT dye reduction assay; type: cell-based, human; settings: NB4, RA 1 μM, 4 days
[6] = test system: HL60 cells; assay: NBT dye reduction assay; type: cell-based, human; settings: HL60, RA 1 μM, 4 days
[7] = test system: early mouse embryos; assay: Early mouse embryo cultures from in vitro fertilization (IVF) assays; settings: added to cultures of IVF embryos; preliminary studies
[8] = test system: F9 teratocarcinoma cells; assay: Cell proliferation by cell counting; type: cell-based, murine; settings: efavirenz 10 and 20 μM, dose-dependent, vs non-exposed cells
Description: (§2) NIH/3T3 embryo fibroblasts and F9 teratocarcinoma cells were cultured in DMEM containing 10-20% fetal serum and two concentrations of efavirenz, i.e. 10 and 20 μM, diluted from a stock solution (10 mM) in 100% DMSO. Cells were plated at a density of 2-5×10^4 in 35 mm Petri dishes and exposed to efavirenz 5-6 hours later. Samples were withdrawn at specific times and cells were counted in efavirenz-exposed compared to parallel non-exposed cell cultures.

[9] = test system: NIH/3T3 embryo fibroblasts; assay: Cell proliferation by cell counting; type: cell-based, murine; settings: efavirenz 10 and 20 μM, dose-dependent, vs non-exposed cells
Description: as §2

[10] = test system: Saos-2 osteosarcoma cells; assay: Cell proliferation by cell counting; type: cell-based, human; settings: 20 μM efavirenz
Description: Samples were withdrawn at specific times and cells were counted in nevirapine-exposed and control (DMSO-exposed) cultures. […] Saos-2 osteosarcoma cells were the most slowly responsive type, and only after 5 days of exposure did the growth rate begin to decrease compared to control cultures.
(§3) The effect of efavirenz was further tested in human HeLa adenocarcinoma and Saos-2 osteosarcoma cells. Both cell lines were cultured in the conditions described above (Example 6). To establish if prolonged exposure to the drug improved the effectiveness of growth inhibition, both cell lines were exposed to efavirenz in two subsequent cycles: during the 1st cycle cells were continuously exposed to 20 μM efavirenz for 5 days; cells were then diluted, reseeded again and the 2nd cycle exposure was initiated the following day with fresh drug. […] The inhibitory effect was time-dependent, since in both HeLa and Saos-2 cultures, the 1st cycle of exposure (5 days) yielded a 1.6- and 1.5-fold reduction, respectively, whereas a 5- and 4-fold reduction was obtained in the 2nd cycle (carried out until day 20 from the onset of exposure).

[11] = test system: HeLa adenocarcinoma cells; assay: Cell proliferation by cell counting; type: cell-based, human; settings: 20 μM efavirenz
Description: as §3

[12] = test system: Morris 3924A hepatoma; assay: Morris 3924A rat hepatoma in vivo; settings: efavirenz 1 mg/rat/day from day of inoculation; two treated rats; controls died at 27th day
Description: Rat strain: ACI/T inbred (about 180 gr)
Tumor: Morris 3924A hepatoma is a fast-growing tumor which develops in inbred ACI/T animals. Three weeks after inoculation the tumor size is about 10 cm^3.
Preparation of tumor cells: hepatoma tumor cells are prepared from the animal about two weeks after inoculation. The tumor is surgically removed from the animal, separated from connective and necrotic tissues and minced in small pieces. Tumor fragments are then suspended in sterile physiological solution and inoculated in the internal site of one thigh using a 20 ml-syringe with a large size needle. Routinely 0.5 ml of cell suspension are injected. The success rate of tumor implantation is nearly 99%.
On the eleventh day, hepatoma cells were inoculated subcutaneously in pre-treated and in three non-treated control rats.
Procedures and Results: Morris hepatoma cells were inoculated in 4 rats ([…]). The same day, treatment with efavirenz was initiated in two of them by injecting 1 mg/rat/day.

[13] = 2nd cycle (until day 20 from onset of exposure)

Structure (SMILES) | CD11b mean fluorescence intensity [1] | CD14 mean fluorescence intensity [1] | CD15 mean fluorescence intensity [1] | CD11b mean fluorescence intensity [2] | CD14 mean fluorescence intensity [2] | CD15 mean fluorescence intensity [2] | Viable cells N^0 × 10^5 [3] | Viable cells N^0 × 10^5 [4] | NBT+ (%) [5] | NBT+ (%) [6] | development of early mouse embryos [7] | rate of proliferation [8] | rate of proliferation [9] | reduction in the rate of cell growth ([10]; 1st cycle of exposure (5 days)) | reduction in the rate of cell growth [10, 13] | reduction in the rate of cell growth ([11]; 1st cycle of exposure (5 days)) | reduction in the rate of cell growth [11, 13] | tumor development in treated rats [12]
CC1=C(/C=C/C(C)=C/C=C/C(C)=C/C(=O)O)C(C)(C)CCC1 [RA, retinoic acid] | 15.3 AU | 23.7 AU | 609.7 AU | 53.7 AU | 19.1 AU | 421.7 AU | 1.4 ± 0.1 × 10^5 | 6.5 ± 0.9 × 10^5 | 80.6 ± 4.5% | 31.2 ± 1.4% |  |  |  |  |  |  |  | 
O=C1Nc2ccc(Cl)cc2[C@@](C#CC2CC2)(C(F)(F)F)O1 [efavirenz, (−)-6-chloro-4-cyclopropylethynyl-4-trifluoromethyl-1,4,-dihydro-2H-3,1-benzoxazine-one] |  |  |  |  |  |  |  |  |  |  | early and effective developmental arrest | decreases the rate of proliferation | decreases the rate of proliferation | 1.5 fold | 4 fold | 1.6 fold | 5 fold | only one of two treated animals developed a tumor of markedly smaller size, whereas the other remained totally healthy
